# Measurements: patent US7125868B2, “Thienothiazine compound having anti-inflammatory and analgesic properties and method of making and using the same” (priority 2001, dated 2006)
# What was measured:
# [1] = system: Carrageenan Induced Rat Foot Swelling; assay: Carrageenan induced rat foot swelling; type: in vivo
# Text: Divide the rats randomly into five groups, with each group consisting of ten rats. […] Use carrageenan induced inflammation to cause rat plantar swelling.
# Rat Gastric Mucosa Ulcer = assay: Side effects of causing rat gastric mucosa ulcer; conditions: four successive days
# [2] = system: Dimethylbenzene Induced Mouse Ear Swelling; assay: Dimethylbenzene induced mouse ear swelling
# Text: Divide the mice randomly into five groups, with each team consisting of ten mice. […] Dimethylbenzene was used to induce ear swelling of the mice.
# [3] = system: Body Twist Reaction Induced by Acetic Acid; assay: Acetic acid induced body twist reaction (chemical stimuli induced pain); conditions: mouse
# [4] = system: Adjuvant Induced Rat Foot Swelling; assay: Adjuvant induced rat foot swelling (primary and secondary inflammation); type: in vivo
smiles,measurement,setting,value
"Cc1cnc(NC(=O)C2=C(O)c3sc(Cl)cc3S(=O)(=O)N2C)s1 [Example 1, 6-chlorine-4-hydroxy-2-methyl-N-[2′-(5′-methyl)thiazolyl]-2H-thieno-[2,3-e]-1,2-thiazine-3-formamide-1,1-dioxide]",Change in the Foot Volume after Giving the Carrageenan,"[1]; 1.0 mg/kg, five hours",0.83 ± 0.28
same,Change in the Foot Volume after Giving the Carrageenan,"[1]; 1.0 mg/kg, four hours",0.76 ± 0.28
same,Change in the Foot Volume after Giving the Carrageenan,"[1]; 1.0 mg/kg, one hour",0.25 ± 0.15
same,Change in the Foot Volume after Giving the Carrageenan,"[1]; 1.0 mg/kg, six hours",0.83 ± 0.25
same,Change in the Foot Volume after Giving the Carrageenan,"[1]; 1.0 mg/kg, three hours",0.66 ± 0.34
same,Change in the Foot Volume after Giving the Carrageenan,"[1]; 1.0 mg/kg, two hours",0.56 ± 0.27
same,Change in the Foot Volume after Giving the Carrageenan,"[1]; 2.0 mg/kg, five hours",0.79 ± 0.25
same,Change in the Foot Volume after Giving the Carrageenan,"[1]; 2.0 mg/kg, four hours",0.70 ± 0.25
same,Change in the Foot Volume after Giving the Carrageenan,"[1]; 2.0 mg/kg, one hour",0.24 ± 0.11
same,Change in the Foot Volume after Giving the Carrageenan,"[1]; 2.0 mg/kg, six hours",0.80 ± 0.21
same,Change in the Foot Volume after Giving the Carrageenan,"[1]; 2.0 mg/kg, three hours",0.63 ± 0.54
same,Change in the Foot Volume after Giving the Carrageenan,"[1]; 2.0 mg/kg, two hours",0.39 ± 0.17
same,Change in the Foot Volume after Giving the Carrageenan,"[1]; 4.0 mg/kg, five hours",0.60 ± 0.31
same,Change in the Foot Volume after Giving the Carrageenan,"[1]; 4.0 mg/kg, four hours",0.59 ± 0.30
same,Change in the Foot Volume after Giving the Carrageenan,"[1]; 4.0 mg/kg, one hour",0.29 ± 0.20
same,Change in the Foot Volume after Giving the Carrageenan,"[1]; 4.0 mg/kg, six hours",0.64 ± 0.24
same,Change in the Foot Volume after Giving the Carrageenan,"[1]; 4.0 mg/kg, three hours",0.50 ± 0.20
same,Change in the Foot Volume after Giving the Carrageenan,"[1]; 4.0 mg/kg, two hours",0.37 ± 0.22
same,effectiveness on carrageenan induced plantar swelling compared with Meloxicam,"[1]; 1, 2, 4 mg/kg vs Meloxicam 4 mg/kg",substantially more effective than the positive medicine Meloxicam
same,Ulcer Occurring Rate,Rat Gastric Mucosa Ulcer; 1 mg/kg oral,0%
same,Ulcer Occurring Rate,Rat Gastric Mucosa Ulcer; 2 mg/kg oral,30%
same,Ulcer Occurring Rate,Rat Gastric Mucosa Ulcer; 4 mg/kg oral,80%
same,Rate of Ear Swelling (x ± s),[2]; 2 mg/kg oral,0.56 ± 0.35
same,inhibition rate (ear swelling),[2]; 2 mg/kg oral,56%
same,Rate of Ear Swelling (x ± s),[2]; 4 mg/kg oral,0.67 ± 0.43
same,inhibition rate (ear swelling),[2]; 4 mg/kg oral,67%
same,Rate of Ear Swelling (x ± s),[2]; 8 mg/kg oral,0.81 ± 0.26
same,inhibition rate (ear swelling),[2]; 8 mg/kg oral,81%
same,Numbers of Occurrence of Body Twist (x ± s),[3]; 2.0 mg/kg oral,14.78 ± 6.38
same,Percentage of Body Twist,[3]; 2.0 mg/kg oral,90%
same,Numbers of Occurrence of Body Twist (x ± s),[3]; 4.0 mg/kg oral,10.78 ± 8.15
same,Percentage of Body Twist,[3]; 4.0 mg/kg oral,80%
same,Numbers of Occurrence of Body Twist (x ± s),[3]; 8.0 mg/kg oral,2.78 ± 3.49
same,Percentage of Body Twist,[3]; 8.0 mg/kg oral,60%
same,Rate of the Change in the Volume of Left and Right Feet after Giving Adjuvant,"[4]; 1.0 mg/kg oral, 18 hours",0.77 ± 0.28
same,Rate of the Change in the Volume of Left and Right Feet after Giving Adjuvant,"[4]; 1.0 mg/kg oral, 24 hours",0.75 ± 0.24
same,Rate of the Change in the Volume of Left and Right Feet after Giving Adjuvant,"[4]; 1.0 mg/kg oral, 3 days",0.74 ± 0.28
same,Rate of the Change in the Volume of Left and Right Feet after Giving Adjuvant,"[4]; 1.0 mg/kg oral, 8 days",0.75 ± 0.29
same,Rate of the Change in the Volume of Left and Right Feet after Giving Adjuvant,"[4]; 1.0 mg/kg oral, 19 days",0.97 ± 0.19
same,Rate of the Change in the Volume of Left and Right Feet after Giving Adjuvant,"[4]; 2.0 mg/kg oral, 18 hours",0.62 ± 0.10
same,Rate of the Change in the Volume of Left and Right Feet after Giving Adjuvant,"[4]; 2.0 mg/kg oral, 24 hours",0.60 ± 0.10
same,Rate of the Change in the Volume of Left and Right Feet after Giving Adjuvant,"[4]; 2.0 mg/kg oral, 3 days",0.61 ± 0.13
same,Rate of the Change in the Volume of Left and Right Feet after Giving Adjuvant,"[4]; 2.0 mg/kg oral, 8 days",0.60 ± 0.14
same,Rate of the Change in the Volume of Left and Right Feet after Giving Adjuvant,"[4]; 2.0 mg/kg oral, 19 days",0.69 ± 1.10
same,Rate of the Change in the Volume of Left and Right Feet after Giving Adjuvant,"[4]; 4.0 mg/kg oral, 18 hours",0.65 ± 0.08
same,Rate of the Change in the Volume of Left and Right Feet after Giving Adjuvant,"[4]; 4.0 mg/kg oral, 24 hours",0.65 ± 0.12
same,Rate of the Change in the Volume of Left and Right Feet after Giving Adjuvant,"[4]; 4.0 mg/kg oral, 3 days",0.53 ± 0.13
same,Rate of the Change in the Volume of Left and Right Feet after Giving Adjuvant,"[4]; 4.0 mg/kg oral, 8 days",0.63 ± 0.16
same,Rate of the Change in the Volume of Left and Right Feet after Giving Adjuvant,"[4]; 4.0 mg/kg oral, 19 days",0.72 ± 1.12
same,inhibition of the primary and secondary inflammation induced by adjuvant,"[4]; 1, 2, 4 mg/kg oral",dosage dependent inhibition
"Cc1cnc(NC(=O)C2=C(O)c3ccccc3S(=O)(=O)N2C)s1 [Meloxicam, reference compound]",Rate of Ear Swelling (x ± s),[2]; 8 mg/kg oral,0.43 ± 0.36
same,inhibition rate (ear swelling),[2]; 8 mg/kg oral,43%
same,Numbers of Occurrence of Body Twist (x ± s),[3]; 8.0 mg/kg oral,18.11 ± 14.37
same,Percentage of Body Twist,[3]; 8.0 mg/kg oral,100%
